These results are taken from US4812483A, “Insecticidal alkenes” (Imperial Chemical Industries PLC, priority 1985, dated 1989).

What all share (assay type): in vivo
Test [1] concerns Diabrotica balteata (rootworm larvae). Put plainly: Residual test, mortality of rootworm larvae (DB). The following applies: 72 h, filter paper/maize seed, 3 days, read-out: grading of mortality, DB. The method, then:
(§1) The activity of the compound was determined using a variety of insect pests. The compound was used in the form of liquid preparations containing 500 parts per million (ppm) by weight of the compound. The preparations were made by dissolving the compound in acetone and diluting the solutions with water containing 0.01% by weight of a wetting agent sold under the trade name "LISSAPOL" NX until the liquid preparations contained the required concentration of the compound. "Lissapol" is a Registered Trade Mark.
(§2) The test procedure adopted with regard to each pest was basically the same and comprised supporting a number of the pests on a medium which was usually a host plant or a foodstuff on which the pests feed, and treating either or both the pests and the medium with the preparations. The mortality of the pests was then assessed at periods usually varying from one to three days after the treatment.
(§3) The results of the tests are given in Table III for each of the compounds, at the rate in parts per million given in the second column as a grading of mortality designated as A, B or C wherein A indicates 80-100% mortality or knockdown, B indicates 50-79% mortality or knockdown and C indicates less than 50% mortality or knockdown.
(§4) In Table III the pest organism used is designated by a letter code and the pests species, the support medium or food, and the type and duration of test is given in Table II.

Test [2] has as its system Blattella germanica (cockroach nymphs). In words: Residual test, mortality of cockroach nymphs (BG). The following applies: 72 h, plastic pot, 3 days, read-out: grading of mortality, BG. The method, then:
as §1, §2, §3, §4

The next test relates to Myzus persicae (aphids). In words: Contact test, mortality of aphids (MP). To be noted: 48 h, leaf, 2 days, read-out: grading of mortality, MP. The method, then:
as §1, §2, §3, §4

Test [3] concerns Musca domestica (houseflies - adults). In words: Contact test, mortality of houseflies (MD). The following applies: 24 h, cotton wool/sugar, 1 day, read-out: grading of mortality, MD. As to the method:
as §1, §2, §3, §4

In test [4] the test system is Heliothis viriscens (tobacco budworm). Put plainly: whole plant or invertebrate. To be noted: in Gossypium hirsutum, 72 h, read-out: grading of mortality, HV. The method, then:
as §1, §2, §3, §4

Test [5] deals with Tetranychus urticae (red spider mites - adult). Put plainly: Contact test, mortality of red spider mites (TU). The following applies: 72 h, French bean leaf, 3 days, read-out: grading of mortality, TU. The method, then: as §1, §2, §3, §4
(red spider mites - adult)

Test [6] deals with Chilo partellurs (Stem borers). In words: Residual test, mortality of stem borers (CP). The following applies: 72 h, oil seed rape leaf, 3 days, read-out: grading of mortality, CP. As to the method:
as §1, §2, §3, §4

In test [7] the test system is Nilaparvata lugens (green leaf hopper). In words: Contact test, mortality of Nilaparvata lugens (NL). The following applies: 144 h, cabbage leaf, 6 days, read-out: grading of mortality, NL. As to the method: as §1, §2, §3, §4

A value given as a limit tells only on which side of the number the result lay.

A word on the mortality: it is the share of the test organisms that died. `C=CC1(COCc2cccc(Oc3ccccc3)c2)CC1` [Compound 6, 1-(3-phenoxybenzyloxymethyl)-1-vinylcyclopropane]: the mortality at 500 ppm (in test [1]; in test [2]; in the test with Myzus persicae (aphids); in test [3]; in test [4]; in test [5]) was < 50% each time. Also, the results for the mortality at 500 ppm in test [6] and in test [7] were < 50% and 50 to 79%, respectively.
For `CC(C)(/C=C/Br)COCc1cccc(Oc2ccccc2)c1` [Compound 7, E-2,2-dimethyl-1-(3-phenoxybenzyloxy)-4-bromobut-3-ene], the mortality at 500 ppm (in test [1]; in test [2]; with Myzus persicae (aphids); in test [3]; in test [4]; in test [5]) was < 50% each time. Further, the values for the mortality at 500 ppm in test [6] and in test [7] were < 50% and 50 to 79%, respectively.
